Patent US4698350A, “1-ethyl-6-fluoro-1,4-dihydro- 7-(2,6-dimethyl-4-pyridinyl)-4-oxo-3-quinolinecarboxylic acid and antibacterial use thereof” (Sterling Drug Inc., priority 1984, dated 1987)
Converted amounts (≈) assume the structure as drawn.

Assays:
Experiment in all cases: In vitro antibacterial MIC/MBC test
Assay type in all cases: cell-based
S. aureus (25923) = details: Staphylococcus aureus, ATCC25923, S. aureus ATCC No. 25923
Procedure: (§1) Win 52,522 and Win 35,439 were solubilized in 0.1 ml of 0.5 N NaOH/mg of compound and diluted in sterile distilled water to 160 mcg/ml. Vancomycin and methicillin were solubilized in sterile distilled water to 1250 mcg/ml of base compound. The stock solutions were sterilized by filtration through membrane filters with a 0.45 μm pore size.
(§2) The bacterial cultures listed in Table I (hereinbelow) were grown overnight at 37° C. in MHB for all cultures except the Streptococcus strains. These were grown in BHI+10% NHS. The overnight broth cultures were adjusted to an optical density of 0.10 (650 nm, B L Spectronic 20) in sterile distilled water and subsequently diluted to 6.7×10^6 cells/ml in MHB or BHI+1% NHS.
(§3) Serial two-fold dilutions of the compound solutions were prepared in MHB (or in BHI+1% NHS for tests with Streptococci) and dispensed into 96-well microtiter trays in a volume of 0.1 ml/well using a Sandy Springs (Bellco Glass Co.) dispenser. The trays were then inoculated with 0.0015 ml of a suspension containing 6.7×10^6 cells/ml of the appropriate inoculum using a MIC-2000 inoculator (Dynatech Corp.) resulting in a final inoculum of approximately 1×10^4 cells/well or 1×10^5 cells/ml. The trays were incubated at 37° C. for 18-20 hours and the minimal inhibitory concentration (MIC), defined as the lowest concentration of compound to inhibit visible bacterial growth, was recorded.
(§4) After the MIC values were recorded, the contents in the microtiter trays were thoroughly mixed on a Bellco Mini-orbital Shaker (Bellco Glass Co.) for 3 min. at a setting of 8. A portion (0.0015 ml) from each well was then transferred via an MIC-2000 inoculator to plates containing MHA or BHI agar+10% NHS. The plates were incubated at 37° C. for 18-20 hrs. The minimal bactericidal concentration (MBC), defined as the lowest concentration of compound that prevented the formation of a recognizable colony on the agar surface, was recorded.

S. pyogenes (89) = details: Streptococcus pyogenes, S. pyogenes SWRI No. 89
Procedure: as §1, §2, §3, §4

S. enterococcus 0-2-13 = tested on: S. enterococcus 0-2-13
Procedure: as §1, §2, §3, §4

S. epidermidis 1-5-H = details: Staphylococcus epidermidis, 15H, S. epidermidis 1-5-H
Procedure: as §1, §2, §3, §4

S. pneumoniae Type III = tested on: S. pneumoniae Type III
Procedure: as §1, §2, §3, §4

S. aureus 21-81A = details: Staphylococcus aureus, 2181A, S. aureus 21-81A
Procedure: as §1, §2, §3, §4

S. aureus 24-81 = details: Staphylococcus aureus, 2481, S. aureus 24-81
Procedure: as §1, §2, §3, §4

S. aureus 4-81 = details: Staphylococcus aureus, 481, S. aureus 4-81
Procedure: as §1, §2, §3, §4

S. pyogenes C203 = details: Streptococcus pyogenes, S. pyogenes C203
Procedure: as §1, §2, §3, §4

S. epidermidis 1-3-H = details: Staphylococcus epidermidis, 13H, S. epidermidis 1-3-H
Procedure: as §1, §2, §3, §4

S. faecalis (11700) = details: Enterococcus faecalis, ATCC11700, S. faecalis ATCC No. 11700
Procedure: as §1, §2, §3, §4

S. pyogenes 7948-15 = details: Streptococcus pyogenes, 794815, S. pyogenes 7948-15
Procedure: as §1, §2, §3, §4

S. aureus S-234 = details: Staphylococcus aureus, S234, S. aureus S-234
Procedure: as §1, §2, §3, §4

S. faecalis (8043) = details: Enterococcus faecalis, ATCC8043, S. faecalis ATCC No. 8043
Procedure: as §1, §2, §3, §4

S. aureus 39881 = details: Staphylococcus aureus, S. aureus 39881
Procedure: as §1, §2, §3, §4

S. aureus Glorgio = details: Staphylococcus aureus, S. aureus Glorgio
Procedure: as §1, §2, §3, §4

S. aureus 59-81 = details: Staphylococcus aureus, 5981, S. aureus 59-81
Procedure: as §1, §2, §3, §4

S. pneumoniae Type I = details: Streptococcus pneumoniae, S. pneumoniae Type I
Procedure: as §1, §2, §3, §4

S. aureus 34-81 = details: Staphylococcus aureus, 3481, S. aureus 34-81
Procedure: as §1, §2, §3, §4

S. aureus 41-81 = details: Staphylococcus aureus, 4181, S. aureus 41-81
Procedure: as §1, §2, §3, §4

S. epidermidis (17917) = details: Staphylococcus epidermidis, ATCC17917, S. epidermidis ATCC No. 17917
Procedure: as §1, §2, §3, §4

**Q.** Which results are given for CCn1cc(C(=O)O)c(=O)c2cc(F)c(-c3cc(C)nc(C)c3)cc21 [Win 52,522, 1-ethyl-6-fluoro-1,4-dihydro-7-(2,6-dimethyl-4-pyridinyl)-4-oxo-3-quinolinecarboxylic acid]?
**A.** MBC (S. aureus (25923); read-out: MBC): 0.03 µg/mL (≈ 0.0881 µM); MIC (S. aureus (25923); read-out: MIC): 0.015 µg/mL (≈ 0.0441 µM); MBC (S. pyogenes (89); read-out: MBC): 0.5 µg/mL (≈ 1.47 µM); MIC (S. pyogenes (89); read-out: MIC): 0.5 µg/mL (≈ 1.47 µM); MBC (S. enterococcus 0-2-13; 0213, S. enterococcus 0-2-13, read-out: MBC): 0.25 µg/mL (≈ 0.735 µM); MIC (S. enterococcus 0-2-13; 0213, S. enterococcus 0-2-13, read-out: MIC): 0.25 µg/mL (≈ 0.735 µM); potency relative to vancomycin (S. enterococcus 0-2-13; in vitro, enterococcus strain 0-2-B): equal in potency; MBC (S. epidermidis 1-5-H; read-out: MBC): 0.06 µg/mL (≈ 0.176 µM); MIC (S. epidermidis 1-5-H; read-out: MIC): 0.06 µg/mL (≈ 0.176 µM); MBC (S. pneumoniae Type III; Streptococcus pneumoniae, S. pneumoniae Type III, read-out: MBC): 0.5 µg/mL (≈ 1.47 µM); MIC (S. pneumoniae Type III; Streptococcus pneumoniae, S. pneumoniae Type III, read-out: MIC): 0.5 µg/mL (≈ 1.47 µM); times less potent than vancomycin (S. pneumoniae Type III; in vitro, S. pneumoniae type III): 8 times; MBC (S. aureus 21-81A; read-out: MBC): 0.015 µg/mL (≈ 0.0441 µM); MIC (S. aureus 21-81A; read-out: MIC): 0.015 µg/mL (≈ 0.0441 µM); MBC (S. aureus 24-81; read-out: MBC): 0.03 µg/mL (≈ 0.0881 µM); MIC (S. aureus 24-81; read-out: MIC): 0.015 µg/mL (≈ 0.0441 µM); MBC (S. aureus 4-81; read-out: MBC): 0.03 µg/mL (≈ 0.0881 µM); MIC (S. aureus 4-81; read-out: MIC): 0.015 µg/mL (≈ 0.0441 µM); MBC (S. pyogenes C203; read-out: MBC): 0.5 µg/mL (≈ 1.47 µM); MIC (S. pyogenes C203; read-out: MIC): 0.5 µg/mL (≈ 1.47 µM); MBC (S. epidermidis 1-3-H; read-out: MBC): 0.06 µg/mL (≈ 0.176 µM); MIC (S. epidermidis 1-3-H; read-out: MIC): 0.06 µg/mL (≈ 0.176 µM); MBC (S. faecalis (11700); read-out: MBC): 0.25 µg/mL (≈ 0.735 µM); MIC (S. faecalis (11700); read-out: MIC): 0.25 µg/mL (≈ 0.735 µM); MBC (S. pyogenes 7948-15; read-out: MBC): 0.5 µg/mL (≈ 1.47 µM); MIC (S. pyogenes 7948-15; read-out: MIC): 0.5 µg/mL (≈ 1.47 µM); MBC (S. aureus S-234; read-out: MBC): 0.03 µg/mL (≈ 0.0881 µM); MIC (S. aureus S-234; read-out: MIC): 0.015 µg/mL (≈ 0.0441 µM); MBC (S. faecalis (8043); read-out: MBC): 0.5 µg/mL (≈ 1.47 µM); MIC (S. faecalis (8043); read-out: MIC): 0.25 µg/mL (≈ 0.735 µM); MBC (S. aureus 39881; read-out: MBC): 0.03 µg/mL (≈ 0.0881 µM); MIC (S. aureus 39881; read-out: MIC): 0.015 µg/mL (≈ 0.0441 µM); MBC (S. aureus Glorgio; read-out: MBC): 0.015 µg/mL (≈ 0.0441 µM); MIC (S. aureus Glorgio; read-out: MIC): < 0.008 µg/mL; MBC (S. aureus 59-81; read-out: MBC): 0.03 µg/mL (≈ 0.0881 µM); MIC (S. aureus 59-81; read-out: MIC): 0.015 µg/mL (≈ 0.0441 µM); MBC (S. pneumoniae Type I; read-out: MBC): 0.25 µg/mL (≈ 0.735 µM); MIC (S. pneumoniae Type I; read-out: MIC): 0.25 µg/mL (≈ 0.735 µM); MBC (S. aureus 34-81; read-out: MBC): 0.03 µg/mL (≈ 0.0881 µM); MIC (S. aureus 34-81; read-out: MIC): 0.03 µg/mL (≈ 0.0881 µM); MBC (S. aureus 41-81; read-out: MBC): 0.015 µg/mL (≈ 0.0441 µM); MIC (S. aureus 41-81; read-out: MIC): 0.015 µg/mL (≈ 0.0441 µM); MBC (S. epidermidis (17917); read-out: MBC): 0.125 µg/mL (≈ 0.367 µM); MIC (S. epidermidis (17917); read-out: MIC): 0.06 µg/mL (≈ 0.176 µM)
